Test results reported in US20070142227A1, “Systemic inducer composition for plants” (priority 2003, published 2007).

What was measured:
infection of leaves = type: in vivo; settings: lettuce every 10 days, foliar; chemical compound 25 grams, extract 5 grams
[1] = tested on: infected leaves and fruits; type: in vivo; settings: strawberry every 10 days, foliar; chemical compound 25 grams, extract 5 grams
leaf infection = type: in vivo, tomato; settings: tomatoes every week, foliar; chemical compound 25 grams, extract 5 grams
mildew = assay: Specific microorganism extracts and chemical compounds, grape mildew (Table II); type: in vivo, grapes
sigatoka = assay: Specific microorganism extracts and chemical compounds, banana sigatoka (Table II); type: in vivo
infection of fruits = type: in vivo; settings: blueberry every 15 days, foliar; chemical compound 25 grams, extract 5 grams
fire blight [2] = assay: Specific microorganism extracts and chemical compounds, apple fire blight burn (Table II); type: in vivo, apples
early & late blight = type: in vivo; settings: potatoes 4 times during season, foliar; chemical compound 25 grams, extract 5 grams
Foliar Infections = type: in vivo; settings: strawberry plant, chemical compound 1.5 kg per acre, extract 5 grams per acre, once a week
nematode = assay: Resistance induction in strawberry plant, root infection (Table I A); settings: in vivo
Fire Blight [3] = assay: Resistance induction in apple trees against fire blight (Table I B); settings: in vivo
foliar infection = type: in vivo; settings: tomato plants, chemical compound 1.5 kg per acre, extract 5 grams per acre, every 10 days
phytopthora [4] = type: in vivo; settings: tomato plants, chemical compound 1.5 kg per acre, extract 5 grams per acre, every 10 days
nematodes [5] = assay: Resistance induction in tomato plants, nematodes (Table I C); settings: in vivo
Black Sigatoka [6] = assay: Resistance induction in bananas against Black Sigatoka (Table I D); design: species or system banana; settings: in vivo
Nematodes [7] = assay: Resistance induction in bananas against nematodes (Table I D); design: species or system banana; settings: in vivo
[8] = Growth effect, citrus (Table III); type: in vivo; settings: foliar, 4 times in 1 year, chemical compound 3 kg, extract 5 grams
Experimental: (§1) These chemical compounds were tested at rates 0.25 to 3 kg per acre of citrus, strawberries, tomatoes and bananas by themselves to measure (A) fertilizer effect on foliar uptake, (B) growth effect, (C) resistance induction effect. These compounds were then combined with extracts of pseudomonas, subtilis species and actinomyces and applied to the similar set of plants and measured for A, B, and C as above. These extracts were also applied to a similar set of plants and measured for A, B, and C as above.

die back = assay: Induction of resistance, citrus die back (Table III); type: in vivo; settings: foliar, 4 times in 1 year, chemical compound 3 kg, extract 5 grams
Experimental: as §1

phytopthora [9] = assay: Induction of resistance, citrus phytopthora in roots (Table III); type: in vivo; settings: foliar, 4 times in 1 year, chemical compound 3 kg, extract 5 grams
Experimental: as §1

[10] = Growth effect, strawberry (Table III); type: in vivo; settings: every 10 days, chemical compound 3 kg, extract 5 grams
Experimental: as §1

leaf disease = assay: Induction of resistance, strawberry leaf disease (Table III); type: in vivo; settings: every 10 days, chemical compound 3 kg, extract 5 grams
Experimental: as §1

[11] = Growth effect, tomatoes (Table III); type: in vivo; settings: every 10 days, foliar, chemical compound 3 kg, extract 5 grams
Experimental: as §1

leaf disease, botrylis = assay: Induction of resistance, tomato leaf infection (Table III); type: in vivo; settings: tomatoes, every 10 days, foliar; chemical compound 3 kg, extract 5 grams
Experimental: as §1

phytopthora [12] = assay: Induction of resistance, tomato phytopthora in roots (Table III); type: in vivo; settings: tomatoes, every 10 days, foliar; chemical compound 3 kg, extract 5 grams
Experimental: as §1

[13] = Growth effect, bananas (Table III); type: in vivo; settings: every week, foliar, for 6 months, chemical compound 3 kg, extract 5 grams
Experimental: as §1

Black Sigatoka [14] = assay: Induction of resistance, banana Sigatoka (Table III); type: in vivo; settings: bananas, every week, foliar, for 6 months; chemical compound 3 kg, extract 5 grams
Experimental: as §1

[15] = bananas every week for 6 months, foliar, chemical compound 25 grams alone

Compound	infection of leaves (infection of leaves) [% infection]	infected leaves [1] [% infection]	infected leaves / leaf infection (leaf infection) [% infection]	infection of fruits (infection of fruits)	infected leaves (early & late blight) (early & late blight) [% leaf infection]	Results in Foliar Infections (Foliar Infections) [% infection]	Results in Root Infection (nematode infection) (nematode) [% nematode infection]	Results On Development of Fire Blight (Fire Blight [3]) [% fire blight]	Results In Foliar & Root Infections: foliar infection (foliar infection)	Results In Foliar & Root Infections: phytopthora (phytopthora [4])	Results In Foliar & Root Infections: nematode (nematodes [5])	Results On Black Sigatoka: Leaves at Flowering (Black Sigatoka [6])	Results On Nematode Infection (Nematodes [7])	further results
O=C([O-])CC(O)(CC(=O)[O-])C(=O)[O-].O=C([O-])CC(O)(CC(=O)[O-])C(=O)[O-].[Ca+2].[Ca+2].[Ca+2] [calcium citrate]	90	80	85	30% infection of fruits	25	–	–	–	–	–	–	–	–	mildew (mildew; in vivo): 55% mildew; infection (sigatoka, leaves) (sigatoka; in vivo): 85% infection-all leaves except youngest 3; infection-all leaves except youngest (number of youngest leaves) (sigatoka; in vivo): 85% infection-all leaves except youngest 3; fire blight burn (leaves) (fire blight [2]; in vivo): 20% fire blight burn
O=[N+]([O-])[O-].O=[N+]([O-])[O-].[Ca+2] [calcium nitrate]	–	–	–	–	–	20	20	20	15% foliar infection, 15% phytopthora, 20% nematrode	15% foliar infection, 15% phytopthora, 20% nematrode	15% foliar infection, 15% phytopthora, 20% nematrode	7 Leaves at Flowering, High Nematode infection	7 Leaves at Flowering, High Nematode infection	–
O=P(O)(O)O [potassium phosphate]	–	–	–	–	–	20	20	18	15% foliar infection, 15% phytopthora, 20% nematrode	15% foliar infection, 15% phytopthora, 20% nematrode	15% foliar infection, 15% phytopthora, 20% nematrode	7 Leaves at Flowering, High Nematode infection	7 Leaves at Flowering, High Nematode infection	–
potassium phosphite	85	85	100	35% infection of fruits	35	–	–	–	–	–	–	–	–	mildew (mildew; grapes every 15 days, foliar, chemical compound 25 grams, extract 5 grams): 70% mildew; infection (sigatoka, leaves) (sigatoka; [15]): 90%; infection-all leaves except youngest (number of youngest leaves) (sigatoka; [15]): 4; fire blight burn (leaves) (fire blight [2]; apples (2 yr old) 10 days post bud break & 1 week later, foliar, chemical compound 25 grams, extract 5 grams): 25% fire blight burn; Growth effect [8]: zero improvement; Induction of Resistance: die back (die back): die back as usual; Induction of Resistance: phytopthora in roots (phytopthora [9]): zero resistance to phytopthora,; Growth effect [10]: no increase; Induction of Resistance: leaf disease, infection (leaf disease): suppression, 25% infection; Growth effect [11]: no increase; Induction of Resistance: leaf infection (leaf disease, botrylis): 35% leaf infection; Induction of Resistance: phytopthora in roots (phytopthora [12]): phytopthora zero control,; Growth effect [13]: no increase; Induction of Resistance: Sigatoka control, leaves with no symptoms (Black Sigatoka [14]): only 4 youngest leaves
